Experiment [1] has as its target HDAC8 enzyme. Kind of experiment: In vitro HDAC assay (BIOMOL fluorescent-based HDAC activity assay), HDAC8. Particulars: Table 3; read-out: HDAC8 Enzyme Activity IC50. In kind it is biochemical, human.
Experimental: (§1) Expression of GST-HDAC1 or HTGST-HDAC8 was done by infecting SF9 cells (Invitrogen Pte Ltd) with pDEST20-HDAC1 or pFASTBAC-GST-HDAC8 baculovirus at MOI=1 for 48 h. Soluble cell lysate was incubated with pre-equilibrated Glutathione Sepharose 4B beads (Amersham) at 4°C for 2 h. The beads were washed with PBS buffer for 3 times. The GST-HDAC1 protein or GST-HDAC8 protein was eluted by elution buffer containing 50 mM Tris, pH8.0, 150mM NaCl, 1% Triton X-100 and 10mM or 20mM reduced Glutathione. The purified GST-HDAC1 protein or purified GST-HDAC8 protein was dialyzed with HDAC storage buffer containing 10mM Tris, pH7.5, 100mM NaCl and 3mM MgCl2. 20% Glycerol was added to purified GST-HDAC1 protein or purified GST-HDAC8 before storage at -80°C.
(§2) The assay has been carried, out in 96 well format and the BIOMOL fluorescent-based HDAC activity assay has been applied. […] Flur de lys Developer was added and the reaction was incubated for 10 min. Briefly, deacetylation of the substrate sensitizes it to the developer, which then generates a fluorophore (symbol). The fluorophore is excited with 360 nm light and the emitted light (460 nm) is detected on a fluorometric plate reader (Tecan Ultra Microplate detection system, Tecan Group Ltd.).
(§3) The analytical software, Prism 3.0 has been used to generate IC50 from a series of data.
Experiment [2] deals with Colo205. Put plainly: Cell-based proliferation assay (cyquant), Colo205.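 Note: Colo205 cells exposed for 96 h to a range of compound concentrations, growth read by CyQUANT, GI50 taken from plotted dose-response curves.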 On the set-up: species or system human. Particulars: Table 4, 96 h treatment.
Experimental: (§4) Human colon cancer cell lines (Colo205 and HCT116), human breast cancer cell lines (MDA-MB435 and MDA-MB231), and human lung cancer cell line (A549) were obtained from ATCC. […] MDA-MB435 cells were cultivated in DMEM containing 2 mM L-Glutamine, 5% FBS. HCT116 cells were cultivated in IMEM containing 2 mM L-Glutamine, 5% FBS. A549 and Colo205 cells were seeded in 96-wells plate at 2000 and 5000 cells per well respectively. MDA-MB435, HCT116, MDA-MB231 cells were seeded in 96-wells plate at 6000 cells per well. The plates were incubated at 37°C, 5% CO2, for 24 h. Cells, were treated with compounds at various concentration for 96 h. Cell growth was then monitored using cyquant cell proliferation assay (Invitrogen Pte Ltd). Dose response curves were plotted to determine GI50 values for the compounds using XL-fist.
Experiment [3] relates to MDA-MB435. Kind of experiment: Cell-based proliferation assay (cyquant), MDA-MB435.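 Note: GI50 taken from dose–response curves over a range of compound concentrations, with cell growth quantified by the CyQUANT proliferation assay.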 On the set-up: species or system human. Conditions: Table 4, 96 h treatment.
Experimental: as §4
The target in experiment [4] is HDAC1 enzyme (Homo sapiens, UniProt Q13547). Kind of experiment: In vitro HDAC assay (BIOMOL fluorescent-based HDAC activity assay), HDAC1. In kind it is biochemical. Particulars: Table 3; read-out: HDAC1 Enzyme Activity IC50.
Experimental: as §1, §2, §3

The results in this text go back to patent publication EP1673349B1, “BENZIMIDAZOLE DERIVATIVES: PREPARATION AND PHARMACEUTICAL APPLICATIONS” (priority 2003, dated 2005).

Read-outs that look alike come from different tables or passages of the source.

Chain of HDAC1 enzyme (Q13547 whole entry): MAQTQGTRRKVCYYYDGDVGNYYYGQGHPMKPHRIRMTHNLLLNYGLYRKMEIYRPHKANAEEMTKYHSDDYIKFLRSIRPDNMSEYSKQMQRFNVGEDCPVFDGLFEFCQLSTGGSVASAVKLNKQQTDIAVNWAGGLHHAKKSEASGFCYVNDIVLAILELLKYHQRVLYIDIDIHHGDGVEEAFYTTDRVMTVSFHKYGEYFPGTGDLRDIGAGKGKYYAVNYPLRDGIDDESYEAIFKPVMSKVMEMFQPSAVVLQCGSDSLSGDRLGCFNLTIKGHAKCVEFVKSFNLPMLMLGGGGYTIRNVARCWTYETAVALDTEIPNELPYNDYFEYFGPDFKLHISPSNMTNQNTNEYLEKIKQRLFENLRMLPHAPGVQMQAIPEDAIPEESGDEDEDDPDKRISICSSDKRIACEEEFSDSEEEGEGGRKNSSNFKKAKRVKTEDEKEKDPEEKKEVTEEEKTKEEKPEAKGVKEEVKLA

Turning to `COc1cc(-c2nc3cc(/C=C/C(=O)NO)ccc3n2CCCO)ccc1OCc1ccccc1` [Compound 4, N-Hydroxy-3-[2-(4-benzyloxy-3-methoxy-phenyl)-1-(3-hydroxy-propyl)-1H-benzimidazole-5-yl]-acrylamide], the IC50 in experiment [1] came to 0.79 µM. Also, the concentration for 50% growth inhibition (GI50) turned out to be 29.9 µM in experiment [2] (Homo sapiens, COLO 205, 96 h) and 25.7 µM in experiment [3] (Homo sapiens, MDA-MB-435).

`O=C(/C=C/c1ccc2c(c1)nc(-c1ccncc1)n2CCCO)NO` [Compound 11, N-Hydroxy-3-[1-(3-hydroxy-propyl)-2-(4-pyridyl)-1H-benzimidazol-5-yl]-acrylamide]: in experiment [1], the IC50 turned out to be 0.161 µM. The GI50 in experiment [2] (Homo sapiens, COLO 205) is > 100 µM; in experiment [3] (Homo sapiens, MDA-MB-435), > 100 µM.

Consider `O=C(/C=C/c1ccc2c(c1)nc(CCc1ccccc1)n2CCCO)NO` [Compound 14, N-Hydroxy-3-[1-(3-hydroxy-propyl)-2-phenethyl-1H-benzimidazol-5-yl]-acrylamide], for which the IC50 in experiment [1] is 0.251 µM. Also, the concentration for 50% growth inhibition (GI50) in experiment [2] (Homo sapiens, COLO 205, 96 h) was found to be 3.07 µM; in experiment [3] (Homo sapiens, MDA-MB-435), 5.99 µM.

On to `O=C(/C=C/c1ccc2c(c1)nc(-c1ccsc1)n2CCCO)NO` [Compound 20, N-Hydroxy-3-[1-(3-hydroxy-propyl)-2-thiophen-3-yl-1H-benzimidazol-5-yl]-acrylamide], for which the concentration for half-maximal inhibition (IC50) in experiment [1] was found to be 0.537 µM. For the same compound, the GI50 in experiment [2] (Homo sapiens, COLO 205, 96 h) worked out at 30.9 µM; in experiment [3] (Homo sapiens, MDA-MB-435), 37.2 µM.

Turning to `CC(C)Cc1nc2cc(/C=C/C(=O)NO)ccc2n1CCCO` [Compound 21, N-Hydroxy-3-[1-(3-hydroxy-propyl)-2-isobutyl-1H-benzimidazol-5-yl]-acrylamide], the IC50 in experiment [1] came to 0.238 µM. Further, the GI50 amounted to 25.9 µM in experiment [2] (Homo sapiens, COLO 205, 96 h) and 30.3 µM in experiment [3] (Homo sapiens, MDA-MB-435).

With `CCCCCCCCc1nc2cc(/C=C/C(=O)NO)ccc2n1CCCO` [Compound 23, N-Hydroxy-3-[1-(3-hydroxy-propyl)-2-octyl-1H-benzimidazol-5-yl]-acrylamide], the IC50 in experiment [1] stood at 0.402 µM. In addition, the GI50 was determined as 3.65 µM in experiment [2] (Homo sapiens, COLO 205, 96 h) and 3.72 µM in experiment [3] (Homo sapiens, MDA-MB-435).

`O=C(/C=C/c1ccc2c(c1)nc(CCc1ccccc1)n2CCc1cccnc1)NO` [Compound 27, N-Hydroxy-3-(2-phenethyl-1-(2-pyridin-3-yl-ethyl)-1H-benzimidazol-5-yl]-acrylamide]: the IC50 in experiment [1] is 0.329 µM. The concentration for 50% growth inhibition (GI50) in experiment [2] (Homo sapiens, COLO 205) is 2.23 µM; in experiment [3] (Homo sapiens, MDA-MB-435), 3.44 µM.

Consider `O=C(/C=C/c1ccc2c(c1)nc(CCc1ccccc1)n2CCCN1CCCC1=O)NO` [Compound 30, N-Hydroxy-3-{1-[3-(2-oxo-pyrrolidin-1-yl)-propyl]-2-phenethyl-1H-benzimidazol-5-yl}-acrylamide], for which the 50% inhibitory concentration (IC50) in experiment [1] came to 0.724 µM. Also, the GI50 in experiment [2] (Homo sapiens, COLO 205, 96 h) came to 11.4 µM; in experiment [3] (Homo sapiens, MDA-MB-435), 19.9 µM.

With `O=C(/C=C/c1ccc2c(c1)nc(CCc1ccccc1)n2Cc1ccccc1)NO` [Compound 33, N-Hydroxy-3-(1-Benzyl-2-phenethyl-1H-benzimidazol-5-yl)-acrylamide], the half-inhibitory concentration (IC50) in experiment [1] turned out to be 1.45 µM. In addition, the GI50 in experiment [2] (Homo sapiens, COLO 205, 96 h) was 1.54 µM; in experiment [3] (Homo sapiens, MDA-MB-435), 3.38 µM.

`O=C(/C=C/c1ccc2c(c1)ncn2Cc1ccccc1)NO` [Compound 35, N-Hydroxy-3-(1-Benzyl-1H-benzimidazol-5-yl)-acrylamide]: the concentration for half-maximal inhibition (IC50) in experiment [1] came to 0.412 µM. In addition, the GI50 worked out at 1.89 µM in experiment [2] (Homo sapiens, COLO 205, 96 h) and 6.76 µM in experiment [3] (Homo sapiens, MDA-MB-435).

In the case of `CCn1c(C)nc2cc(/C=C/C(=O)NO)ccc21` [Compound 43, N-Hydroxy-3-(1-Ethyl-2-methyl-1H-benzimidazol-5-yl]-acrylamide], in experiment [1], the IC50 stood at 0.192 µM. The GI50 was 9.18 µM in experiment [2] (Homo sapiens, COLO 205) and 8.62 µM in experiment [3] (Homo sapiens, MDA-MB-435).

As to `COc1cc(Cn2c(CCc3ccccc3)nc3cc(CCC(=O)NO)ccc32)cc(OC)c1OC` [Compound 45], in experiment [4], the IC50 worked out at 0.167 µM. Moreover, the GI50 in experiment [2] (read-out: GI50 (Colo 205)) was determined as 2.41 µM; in experiment [3], 1.9 µM.
